9 molecules from ChEMBL document CHEMBL4811226, “Species Prioritization Based on Spectral Dissimilarity: A Case Study of Polyporoid Fungal Species” (J Nat Prod, 2021) can be followed below.

Activity calls are given as the source filed them. The calls are words filed in the database; no cut-off is given here.

In the first assay the test system is HCT-116. The assay can be described thus: Cytotoxicity against human HCT-116 cells assessed as reduction in cell viability measured after 48 hrs by MTS assay. Format: functional, cell-based.
Settings: not given
`C=C1CC[C@H]2[C@](C)(COC(=O)[C@@H](CC(=O)O)[C@@H](OC[C@H]3C(=C)CC[C@H]4[C@](C)(CO)CCC[C@]34C)C(=O)OC)CCC[C@]2(C)[C@H]1CO[C@@H](C(=O)OC)[C@H](CC(=O)O)C(=O)OC`: the result was inactive.
The same measure, in the same setting: the entry for `C=C1CC[C@H]2[C@](C)(COC(=O)[C@@H](CC(=O)O)[C@@H](OC[C@H]3C(=C)CC[C@H]4[C@](C)(COC(=O)[C@@H](CC(=O)O)[C@@H](OC[C@H]5C(=C)CC[C@H]6[C@](C)(CO)CCC[C@]56C)C(=O)OC)CCC[C@]34C)C(=O)OC)CCC[C@]2(C)[C@H]1CO[C@@H](C(=O)OC)[C@H](CC(=O)OC)C(=O)O` is “inactive”.
Consider `C=C1CC[C@H]2C(C)(C)CCC[C@]2(C)[C@H]1CO[C@@H](C(=O)OC)[C@H](CC(=O)OC)C(=O)OC`, for which the outcome was inactive.
With `C=C1CC[C@H]2[C@@]3(C)CCC[C@]2(C)[C@H]1CO[C@@H](C(=O)OC)[C@H](CC(=O)O)C(=O)OC[C@]1(C)CCC[C@]2(C)[C@@H](CO[C@@H](C(=O)OC)[C@H](CC(=O)OC)C(=O)OC3)C(=C)CC[C@@H]12`, the outcome was inactive.
As to `C=C1CC[C@H]2[C@](C)(COC(=O)[C@@H](CC(=O)O)[C@@H](OC[C@H]3C(=C)CC[C@H]4[C@](C)(CO)CCC[C@]34C)C(=O)OC)CCC[C@]2(C)[C@H]1CO[C@@H](C(=O)OC)[C@H](CC(=O)O)C(=O)OC(C)C`, the outcome was inactive.
Consider `C=C1CC[C@H]2[C@@]3(C)CCC[C@]2(C)[C@H]1CO[C@@H](C(=O)OC)[C@H](CC(=O)O)C(=O)OC[C@]1(C)CCC[C@]2(C)[C@@H](CO[C@@H](C(=O)OC)[C@H](CC(=O)O)C(=O)OC3)C(=C)CC[C@@H]12`, for which the outcome was inactive.
Same read-out and setting: the entry for `C=C1CC[C@H]2[C@](C)(COC(=O)[C@@H](CC(=O)OC)[C@@H](OC[C@H]3C(=C)CC[C@H]4[C@](C)(CO)CCC[C@]34C)C(=O)OC)CCC[C@]2(C)[C@H]1CO[C@@H](C(=O)OC)[C@H](CC(=O)OC)C(=O)OC` is “inactive”.

Still in this assay, the particulars now being: HCT-116, 48 h.
For `C=C1CC[C@H]2[C@](C)(COC(=O)[C@@H](CC(=O)OC)[C@@H](OC[C@H]3C(=C)CC[C@H]4[C@](C)(CO)CCC[C@]34C)C(=O)OC)CCC[C@]2(C)[C@H]1CO[C@@H](C(=O)OC)[C@H](CC(=O)O)C(=O)OC`, the 50% inhibitory concentration (IC50) amounted to 3.6 µM.
Still for that read-out and setting: the figure for `C=C1CC[C@H]2[C@](C)(COC(=O)[C@@H](CC(=O)O)[C@@H](OC[C@H]3C(=C)CC[C@H]4[C@](C)(CO)CCC[C@]34C)C(=O)OC)CCC[C@]2(C)[C@H]1CO[C@@H](C(=O)OC)[C@H](CC(=O)OC)C(=O)OC` is 4.3 µM.

By IC50 is commonly meant the midpoint of a concentration-inhibition curve.
